Assay results: article PMC4466525, “Design, Synthesis and Structure-Activity Relationship Studies of Novel Survivin Inhibitors with Potent Anti-Proliferative Properties” (PLoS ONE, 2015)

Columns and labels:
[1] = molecular target: T1, survivin (Homo sapiens, UniProt O15392); assay: Western blotting of survivin level, A375 cells; type: cell-based
T1 construct: endogenous in cells; host or cells: A375 cells
Protocol: (§1) Lysates of A375 cells treated by the compound solution for 24 h were used to determine the change of IAP protein levels through western blotting. Primary rabbit antibodies against survivin, XIAP, cIAP1, cIAP2, livin and GAPDH were purchased from Cell Signaling Technology, Inc. (Danvers, MA) and used according to manufacture instructions as reported previously. Protein lane intensities were quantified by ImageJ software (US National Institutes of Health, Bethesda, MD).

[2] = system: other IAPs (XIAP, cIAP1, cIAP2, livin); assay: Western blotting of other IAP levels; type: cell-based, human; conditions: 24 h, A375 and PC-3 cells
Protocol: as §1

[3] = system: PC-3; assay: Cell viability (MTS) anti-proliferative assay, PC-3; type: cell-based; conditions: PC-3 human prostate cancer, 48 h treatment, n = 4, read-out: IC50 values ± SEM, PC-3
Protocol: (§2) The anti-proliferative effect of UC-112 and its analogs were tested in human melanoma (A375, M14 and M14/LCC6MDR1) and human prostate cancer (PC-3) cell lines. All the cell lines were purchased from ATCC (American Type Culture Collection, Manassas, VA). The cancer cells were cultured using the supplemented cell culture medium as described before at 37°C in a humidified atmosphere containing 5% CO2. 5000 cells in logarithm growing phase were seeded overnight into each well of a 96-well plate. Then the cells were continuously incubated with sequential diluted compound solution (10 nM to 100 μM, 100 μl per well) in cell culture medium.

[4] = system: M14; assay: Cell viability (MTS) anti-proliferative assay, M14; type: cell-based; conditions: M14 human melanoma, 48 h treatment, n = 4, read-out: IC50 values ± SEM, M14
Protocol: as §2

[5] = system: M14/LCC6MDR1; assay: Cell viability (MTS) anti-proliferative assay, multidrug-resistant M14/LCC6MDR1; type: cell-based, human
Protocol: as §2

[6] = system: A375; assay: Cell viability (MTS) anti-proliferative assay, A375; type: cell-based; conditions: A-375, A375 human melanoma, 48 h treatment, n = 4, read-out: IC50 values ± SEM, A375
Protocol: as §2

[7] = molecular target: T1, survivin; assay: Western blotting of survivin level, PC-3 cells; type: cell-based; conditions: gradient increasing dose, 24 h

T1 sequence (O15392 whole entry): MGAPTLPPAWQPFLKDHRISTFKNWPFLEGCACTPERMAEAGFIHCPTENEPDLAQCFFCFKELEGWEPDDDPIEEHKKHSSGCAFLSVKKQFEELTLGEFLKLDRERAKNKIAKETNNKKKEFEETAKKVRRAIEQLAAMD

IC50 [3]: 900 ± 100 nM | IC50 [6]: 900 ± 100 nM
SMILES: CCc1ccc(COCc2cc(CN3CCCC3)c(O)c3ncccc23)cc1 [4f, 5-(((4-ethylbenzyl)oxy)methyl)-7-(pyrrolidin-1-ylmethyl)quinolin-8-ol]
IC50 values for survivin inhibition ([1]; estimated from western blotting, A375 and PC-3 cells): low nanomolar range | Effect on survivin level, A375 ([1]; gradient increasing dose, 24 h, A375 cells): dose-dependently suppressed survivin level | Effect on levels of other IAPs [2]: minimally affected | IC50 [4]: 900 ± 100 nM | IC50 ([5]; Homo sapiens, 48 h, multidrug-resistant M14/LCC6MDR1 melanoma, 48 h treatment, MTS, n = 4, read-out: IC50 values ± SEM, M14/LCC6MDR1): 2700 ± 1000 nM | Resistance Index ([5]; IC50 on M14/LCC6MDR1 divided by IC50 on parental M14): 3.0 | Effect on survivin level, PC-3 [7]: dose-dependently suppressed survivin level
